These compounds were tested on Jurkat cells (assay: Jurkat cell proliferation, MTS method: compound alone or combined with bleomycin). Conditions: compound plus bleomycin 5 μg/ml or 10 μg/ml, 36 hours, survival rate vs DMSO control.
Type: cell-based
Parameters: key: ┌++┘ indicates observation of remarkable enhancement; ┌+┘ indicates moderated enhancement
Procedure: By using aforementioned synthetic compounds, effects on proliferation of Jurkat cells by sole administration and inhibitory effects on cell proliferation by administration in combination with bleomycin were examined. Materials and methods are as follows. Jurkat cells obtained from Dainippon Pharmaceutical Co. Ltd. were inoculated at about 10,000 cells per well in a 96 well culture plate, and incubated in 10% bovine fetal serum (Irvine Scientific) supplemented with RPMI1640 (ICN) medium in 5% CO2 incubator at 37° C. […] 36 hours after the incubation, the number of living cells was counted by the MTS method.
More specifically, 20 μl of CellTiter96™ AQueous One Solution (Promega) was added per one well, and after the cells were incubated for additional one hour, an absorbance at 490 nm was measured by using a microplate reader. The same culture added with DMSO as a solvent at final concentration of 0.25% was used as a control. The number of cells in the control was considered as 100% survival rate, and for each compound, survival rates by sole administration or a combined administration were calculated. […] In the table, ┌++┘ indicates observation of remarkable enhancement, ┌+┘ indicates moderated enhancement.
Cc1ccc(S(=O)(=O)Oc2cccc3c(S(=O)(=O)N(C)Cc4ccccc4)cccc23)cc1 [Compound 1-27, N-Benzyl-N-methyl-5-{[(4-methylphenyl)sulfonyl]oxy}naphthalene-1-sulfonamide] was tested, and the “Activity (enhancement of inhibitory effect on cell proliferation in combination with bleomycin)” value was “+”. In the case of Cc1ccc(S(=O)(=O)Oc2cccc3c(S(=O)(=O)NCc4cccc5ccccc45)cccc23)cc1 [Compound 1-19, N-(1-Naphthylmethyl)-5-{[(4-methylphenyl)sulfonyl]oxy}naphthalene-1-sulfonamide], the “Activity (enhancement of inhibitory effect on cell proliferation in combination with bleomycin)” value is reported as “++”. With CC(C)(C)c1ccc(CNS(=O)(=O)c2ccc3c(N)cccc3c2)cc1 [Compound 6-2, 5-Amino-N-[4-(tert-butyl)benzyl]naphthalene-2-sulfonamide] the “Activity (enhancement of inhibitory effect on cell proliferation in combination with bleomycin)” value was “+”. O=S(=O)(NCc1ccccc1C(F)(F)F)c1cccc2c(O)cccc12 [Compound 2-8, N-[2-(Trifluoromethyl)benzyl]-5-hydroxynaphthalene-1-sulfonamide] was tested, and the “Activity (enhancement of inhibitory effect on cell proliferation in combination with bleomycin)” value was “+”. COc1ccccc1CNS(=O)(=O)c1cccc2c(OS(=O)(=O)c3ccc(C)cc3)cccc12 [Compound 1-11, N-(2-Methoxybenzyl)-5-{[(4-methylphenyl)sulfonyl]oxy}naphthalene-1-sulfonamide] was tested, and the “Activity (enhancement of inhibitory effect on cell proliferation in combination with bleomycin)” value was “++”. In the case of O=S(=O)(NCC1CCCCC1)c1cccc2c(O)cccc12 [Compound 2-23, N-Cyclohexylmethyl-5-hydroxynaphthalene-1-sulfonamide], the “Activity (enhancement of inhibitory effect on cell proliferation in combination with bleomycin)” value is reported as “+”. With Cc1ccc(S(=O)(=O)Oc2cccc3c(S(=O)(=O)NCc4cccc(N)c4)cccc23)cc1 [Compound 1-16, N-(3-Aminobenzyl)-5-{[(4-methylphenyl)sulfonyl]oxy}naphthalene-1-sulfonamide] the “Activity (enhancement of inhibitory effect on cell proliferation in combination with bleomycin)” value was “+”. With O=[N+]([O-])c1cccc(CNS(=O)(=O)c2ccc3c(O)cccc3c2)c1 [Compound 4-3, N-(3-Nitrobenzyl)-5-hydroxynaphthalene-2-sulfonamide] the “Activity (enhancement of inhibitory effect on cell proliferation in combination with bleomycin)” value was “+”. With CC(=O)Oc1cccc2cc(S(=O)(=O)NCc3ccc(C)o3)ccc12 [Compound 3-9, 5-Acetyloxy-N-[(5-methylfuran-2-yl)methyl]naphthalene-2-sulfonamide] the “Activity (enhancement of inhibitory effect on cell proliferation in combination with bleomycin)” value was “+”. Cc1ccc(S(=O)(=O)Oc2cccc3c(S(=O)(=O)NCc4ccc(C)o4)cccc23)cc1 [Compound 1-20, N-[(5-Methylfuran-2-yl)methyl]-5-{[(4-methylphenyl)sulfonyl]oxy}naphthalene-1-sulfonamide] was tested, and the “Activity (enhancement of inhibitory effect on cell proliferation in combination with bleomycin)” value was “+”. In the case of Cc1ccc(S(=O)(=O)Oc2cccc3c(S(=O)(=O)NCc4ccc(Cl)cc4Cl)cccc23)cc1 [Compound 1-3, N-(2,4-Dichlorobenzyl)-5-{[(4-methylphenyl)sulfonyl]oxy}naphthalene-1-sulfonamide], the “Activity (enhancement of inhibitory effect on cell proliferation in combination with bleomycin)” value is reported as “++”. For COc1cccc(CNS(=O)(=O)c2cccc3c(OS(=O)(=O)c4ccc(C)cc4)cccc23)c1 [Compound 1-12, N-(3-Methoxybenzyl)-5-{[(4-methylphenyl)sulfonyl]oxy}naphthalene-1-sulfonamide], the “Activity (enhancement of inhibitory effect on cell proliferation in combination with bleomycin)” value was “+”. With O=S(=O)(NCc1cccc2ccccc12)c1ccc2c(O)cccc2c1 [Compound 4-8, N-(1-Naphthylmethyl)-5-hydroxynaphthalene-2-sulfonamide] the “Activity (enhancement of inhibitory effect on cell proliferation in combination with bleomycin)” value was “+”. In the case of COc1cccc(CNS(=O)(=O)c2cccc3c(O)cccc23)c1OC [Compound 2-13, N-(2,3-Dimethoxylbenzyl)-5-hydroxynaphthalene-1-sulfonamide], the “Activity (enhancement of inhibitory effect on cell proliferation in combination with bleomycin)” value is reported as “+”. O=S(=O)(NCc1cccc2ccccc12)c1cccc2c(O)cccc12 [Compound 2-19, N-(1-Naphthylmethyl)-5-hydroxynaphthalene-1-sulfonamide] was tested, and the “Activity (enhancement of inhibitory effect on cell proliferation in combination with bleomycin)” value was “++”.
